Reference: the supplement of paper PMC10307832

Tests used:
Experiment in all cases: relative viability (nuclei count vs DMSO), 5 days (fraction); higher = more cells survive
Etoposide + AZD7762 = compound: COc1cc([C@@H]2c3cc4c(cc3[C@@H](O[C@@H]3O[C@@H]5CO[C@@H](C)O[C@H]5[C@H](O)[C@H]3O)[C@H]3COC(=O)[C@H]23)OCO4)cc(OC)c1O [Etoposide] + NC(=O)Nc1cc(-c2cccc(F)c2)sc1C(=O)N[C@H]1CCCNC1 [AZD7762] (partner 0.2 µM)
Procedure, shortened: (§1)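 The day after seeding in 1536-well plates, lung cancer cell lines were treated by pin tool with a single drug, or with a fixed anchor-drug dose together with five library-drug doses (not always all listed) in √10 steps. After 5 days, a combined fix-and-stain solution (final 0.05% Triton X-100, 1% formaldehyde, 1 ug/ml Hoechst) was added. Nuclei counted on 4× images gave relative viability as treated counts over vehicle counts, reported as the median of duplicate plates.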

Bleomycin + Vorinostat = compound: CC1=C(N=C(N=C1N)[C@H](CC(=O)N)NC[C@@H](C(=O)N)N)C(=O)N[C@@H]([C@H](C2=CN=CN2)OC3C(C(C(C(O3)CO)O)O)OC4C(C(C(C(O4)CO)O)OC(=O)N)O)C(=O)N[C@H](C)[C@H]([C@H](C)C(=O)N[C@@H]([C@@H](C)O)C(=O)NCCC5=NC(=CS5)C6=NC(=CS6)C(=O)NCCC[S+](C)C)O [Bleomycin] + O=C(CCCCCCC(=O)Nc1ccccc1)NO [Vorinostat] (partner 1 µM); settings: main component drawn
Procedure, shortened: as §1

Etoposide + Phenformin = compound: COc1cc([C@@H]2c3cc4c(cc3[C@@H](O[C@@H]3O[C@@H]5CO[C@@H](C)O[C@H]5[C@H](O)[C@H]3O)[C@H]3COC(=O)[C@H]23)OCO4)cc(OC)c1O [Etoposide] + N=C(N)NC(=N)NCCc1ccccc1 [Phenformin] (partner 250 µM)
Procedure, shortened: as §1

Bleomycin + Bortezomib = compound: CC1=C(N=C(N=C1N)[C@H](CC(=O)N)NC[C@@H](C(=O)N)N)C(=O)N[C@@H]([C@H](C2=CN=CN2)OC3C(C(C(C(O3)CO)O)O)OC4C(C(C(C(O4)CO)O)OC(=O)N)O)C(=O)N[C@H](C)[C@H]([C@H](C)C(=O)N[C@@H]([C@@H](C)O)C(=O)NCCC5=NC(=CS5)C6=NC(=CS6)C(=O)NCCC[S+](C)C)O [Bleomycin] + CC(C)C[C@H](NC(=O)[C@H](Cc1ccccc1)NC(=O)c1cnccn1)B(O)O [Bortezomib] (partner 0.002 µM); settings: main component drawn
Procedure, shortened: as §1

Cell Line | relative viability (Etoposide + AZD7762; first compound 0.03162 µM) | relative viability (Etoposide + AZD7762; first compound 0.1 µM) | relative viability (Etoposide + AZD7762; first compound 0.3162 µM) | relative viability (Etoposide + AZD7762; first compound 1 µM) | relative viability (Bleomycin + Vorinostat; first compound 0.01 µM) | relative viability (Bleomycin + Vorinostat; first compound 0.03162 µM) | relative viability (Bleomycin + Vorinostat; first compound 0.1 µM) | relative viability (Bleomycin + Vorinostat; first compound 0.3162 µM) | relative viability (Bleomycin + Vorinostat; first compound 1 µM) | relative viability (Etoposide + Phenformin; first compound 0.01 µM) | relative viability (Etoposide + Phenformin; first compound 0.03162 µM) | relative viability (Etoposide + Phenformin; first compound 0.1 µM) | relative viability (Etoposide + Phenformin; first compound 0.3162 µM) | relative viability (Etoposide + Phenformin; first compound 1 µM) | relative viability (Etoposide + AZD7762; first compound 0.01 µM) | relative viability (Bleomycin + Bortezomib; first compound 0.01 µM) | relative viability (Bleomycin + Bortezomib; first compound 0.03162 µM) | relative viability (Bleomycin + Bortezomib; first compound 0.1 µM) | relative viability (Bleomycin + Bortezomib; first compound 0.3162 µM) | relative viability (Bleomycin + Bortezomib; first compound 1 µM)
NCI-H1648 | 0.762 | 0.991 | 0.722 | 0.451 | 0.46 | 0.324 | 0.275 | 0.257 | 0.271 | – | – | – | – | – | – | – | – | – | – | –
A549 | – | – | – | – | – | – | – | – | – | 0.2 | 0.121 | 0.116 | 0.0719 | 0.0368 | – | – | – | – | – | –
NCI-H1792 | 0.661 | – | 0.471 | 0.122 | – | – | – | – | – | 0.177 | 0.189 | – | 0.257 | 0.0965 | 0.485 | 0.871 | 0.958 | 0.663 | 0.323 | 0.283
NCI-H1703 | 0.126 | – | 0.121 | 0.114 | – | – | – | – | – | – | – | – | – | – | 0.149 | 0.328 | 0.276 | 0.245 | 0.134 | 0.125
SW 1573 | – | – | – | – | 0.609 | 0.447 | 0.481 | 0.271 | 0.187 | 0.341 | 0.36 | 0.255 | 0.183 | 0.142 | – | 0.7 | 0.812 | 0.719 | 0.305 | 0.26
COR-L 105 | – | – | – | – | 0.716 | 0.719 | 0.617 | 0.435 | 0.486 | 0.664 | 0.53 | 0.405 | 0.444 | 0.39 | – | 0.711 | 0.594 | 0.549 | 0.337 | 0.292
Calu-6 | – | – | – | – | – | – | – | – | – | – | – | – | – | – | – | 0.638 | 0.673 | 0.334 | 0.226 | 0.191
SK-LU-1 | – | – | – | – | 0.734 | 0.746 | 0.521 | 0.454 | 0.348 | 0.476 | 0.605 | 0.322 | 0.224 | 0.183 | – | 0.939 | 1.04 | 0.915 | 0.293 | 0.274
NCI-H358 | 0.527 | 0.332 | 0.288 | 0.266 | 0.539 | 0.722 | 0.661 | 0.327 | 0.217 | 0.341 | 0.402 | 0.219 | 0.114 | 0.0696 | 0.512 | – | – | – | – | –
NCI-H1944 | 0.639 | 0.276 | 0.377 | 0.235 | 0.284 | 0.244 | 0.265 | 0.154 | 0.152 | 0.189 | 0.275 | 0.213 | 0.148 | 0.123 | 0.577 | – | – | – | – | –
NCI-H2342 | 0.441 | 0.337 | 0.433 | 0.4 | 0.786 | 0.735 | 0.652 | 0.551 | 0.491 | 0.646 | 0.643 | 0.425 | 0.351 | 0.284 | 0.573 | – | – | – | – | –
EBC-1 | – | – | – | – | – | – | – | – | – | – | – | – | – | – | – | 0.474 | 0.422 | 0.469 | 0.307 | 0.233
NCI-H1299 | – | – | – | – | – | – | – | – | – | – | – | – | – | – | – | 0.963 | 0.994 | 0.95 | 0.435 | 0.412
NCI-H522 | 0.97 | 0.69 | 0.761 | 0.824 | 0.979 | 0.911 | 0.739 | 0.525 | 0.374 | 0.665 | 0.623 | 0.535 | 0.595 | 0.614 | 0.891 | – | – | – | – | –
IA-LM | – | – | – | – | 0.791 | 0.802 | 0.801 | 0.398 | 0.635 | – | – | – | – | – | – | 0.493 | 0.746 | 0.676 | 0.339 | 0.269
SK-MES-1 | – | – | – | – | 0.839 | 0.936 | 0.903 | 0.471 | 0.235 | 0.654 | 0.683 | 0.582 | 0.402 | 0.248 | – | – | – | – | – | –
NCI-H2170 | 0.882 | – | 0.881 | 0.482 | 0.639 | 0.591 | 0.605 | 0.383 | 0.34 | 0.373 | 0.429 | 0.468 | 0.409 | 0.348 | 0.721 | – | – | – | – | –
NCI-H520 | – | – | – | – | 0.592 | 0.743 | 0.589 | 0.574 | 0.416 | 0.487 | 0.585 | – | 0.619 | 0.502 | – | 0.596 | 0.33 | 0.708 | 0.142 | 0.293
NCI-H661 | – | – | – | – | 0.777 | 0.708 | 0.565 | 0.376 | 0.346 | 0.283 | 0.289 | 0.267 | 0.249 | 0.208 | – | 0.838 | 0.603 | 0.484 | 0.228 | 0.251
NCI-H1793 | 0.548 | 0.282 | 0.474 | 0.196 | 0.714 | 0.647 | 0.525 | 0.215 | 0.141 | 0.329 | 0.47 | – | 0.394 | 0.159 | – | – | – | – | – | –
NCI-H2228 | – | – | – | – | 0.637 | 0.557 | 0.486 | 0.17 | 0.22 | 0.39 | 0.348 | 0.224 | 0.176 | 0.102 | – | 1.14 | 1.02 | 0.721 | 0.558 | 0.293
NCI-H2023 | – | – | – | – | 0.409 | 0.385 | 0.338 | 0.0999 | 0.114 | 0.403 | 0.385 | 0.307 | 0.198 | 0.107 | – | 0.61 | 0.772 | 0.548 | 0.205 | 0.11
NCI-H2009 | – | – | – | – | 0.662 | 0.739 | 0.854 | 0.541 | 0.36 | 0.492 | 0.505 | 0.492 | 0.416 | 0.342 | – | 0.852 | 0.98 | 1.01 | 0.358 | 0.441
